According to PubChem BioAssay (NCI):
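Five compound concentrations were applied to cells in 96-well plates for 48 hours; endpoints were derived by simple linear interpolation of the resulting dose-response curve. TGI: total growth inhibition.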

Columns and labels:
Experiment in all cases: NCI anticancer screen, dose series, 48 h
786-0 renal = test system: 786-0 renal
A549 NSCLC = test system: A549 NSCLC
ACHN renal = test system: ACHN renal
BT-549 breast = test system: BT-549 breast
CAKI-1 renal = test system: CAKI-1 renal
CCRF-CEM leukemia = test system: CCRF-CEM leukemia
COLO 205 colon = test system: COLO 205 colon
DU-145 prostate = test system: DU-145 prostate
EKVX NSCLC = test system: EKVX NSCLC
HCC-2998 colon = test system: HCC-2998 colon
HCT-116 colon = test system: HCT-116 colon
HCT-15 colon = test system: HCT-15 colon
HL-60(TB) leukemia = test system: HL-60(TB) leukemia
HOP-62 NSCLC = test system: HOP-62 NSCLC
HOP-92 NSCLC = test system: HOP-92 NSCLC
HS 578T breast = test system: HS 578T breast
HT29 colon = test system: HT29 colon
IGROV1 ovarian = test system: IGROV1 ovarian
K-562 leukemia = test system: K-562 leukemia
KM12 colon = test system: KM12 colon
LOX IMVI melanoma = test system: LOX IMVI melanoma
M14 melanoma = test system: M14 melanoma
MALME-3M melanoma = test system: MALME-3M melanoma
MCF7 breast = test system: MCF7 breast
MDA-MB-231 breast = test system: MDA-MB-231 breast
MDA-MB-435 = test system: MDA-MB-435
MDA-N = test system: MDA-N
MOLT-4 leukemia = test system: MOLT-4 leukemia
NCI-H226 lung = test system: NCI-H226 lung
NCI-H23 lung = test system: NCI-H23 lung
NCI-H460 lung = test system: NCI-H460 lung
NCI-H522 lung = test system: NCI-H522 lung
NCI/ADR-RES ovarian = test system: NCI/ADR-RES ovarian
OVCAR-4 ovarian = test system: OVCAR-4 ovarian
OVCAR-5 ovarian = test system: OVCAR-5 ovarian
OVCAR-8 ovarian = test system: OVCAR-8 ovarian
PC-3 prostate = test system: PC-3 prostate
RPMI-8226 leukemia = test system: RPMI-8226 leukemia
RXF 393 renal = test system: RXF 393 renal
SF-268 CNS = test system: SF-268 CNS
SF-295 CNS = test system: SF-295 CNS
SK-MEL-2 melanoma = test system: SK-MEL-2 melanoma
SK-MEL-5 melanoma = test system: SK-MEL-5 melanoma
SK-OV-3 ovarian = test system: SK-OV-3 ovarian
SN12C renal = test system: SN12C renal
SNB-19 CNS = test system: SNB-19 CNS
SNB-75 CNS = test system: SNB-75 CNS
SW-620 colon = test system: SW-620 colon
T-47D breast = test system: T-47D breast
TK-10 renal = test system: TK-10 renal
U251 CNS = test system: U251 CNS
UACC-257 melanoma = test system: UACC-257 melanoma
UACC-62 melanoma = test system: UACC-62 melanoma
UO-31 renal = test system: UO-31 renal
A498 renal = test system: A498 renal
SF-539 CNS = test system: SF-539 CNS
SK-MEL-28 melanoma = test system: SK-MEL-28 melanoma
SR leukemia = test system: SR leukemia

For `COC(=O)[C@H](Cc1ccccc1)NP(=O)(OCCC#N)OCC1OC(n2cc(C)c(=O)[nH]c2=O)CC1N=[N+]=[N-]` (stereo partly specified), the TGI (786-0 renal) was greater than 100 µM, the TGI (A549 NSCLC) was greater than 100 µM and the TGI (ACHN renal) was greater than 100 µM. It also gave a TGI (BT-549 breast) greater than 100 µM, a TGI (CAKI-1 renal) greater than 100 µM and a TGI (CCRF-CEM leukemia) greater than 100 µM. For the same compound, the TGI (COLO 205 colon) was greater than 100 µM, the TGI (DU-145 prostate) was greater than 100 µM and the TGI (EKVX NSCLC) was greater than 100 µM. The TGI (HCC-2998 colon) was greater than 100 µM, the TGI (HCT-116 colon) was greater than 100 µM and the TGI (HCT-15 colon) was greater than 100 µM. For the same compound, the TGI (HL-60(TB) leukemia) was greater than 100 µM, the TGI (HOP-62 NSCLC) was greater than 100 µM and the TGI (HOP-92 NSCLC) was greater than 100 µM. For the same compound, the TGI (HS 578T breast) was greater than 100 µM, the TGI (HT29 colon) was greater than 100 µM and the TGI (IGROV1 ovarian) was greater than 100 µM. For the same compound, the TGI (K-562 leukemia) was greater than 100 µM, the TGI (KM12 colon) was greater than 100 µM and the TGI (LOX IMVI melanoma) was greater than 100 µM. It also gave a TGI (M14 melanoma) greater than 100 µM, a TGI (MALME-3M melanoma) greater than 100 µM and a TGI (MCF7 breast) greater than 100 µM. The TGI (MDA-MB-231 breast) was greater than 100 µM, the TGI (MDA-MB-435) was greater than 100 µM and the TGI (MDA-N) was greater than 100 µM. For the same compound, the TGI (MOLT-4 leukemia) was greater than 100 µM, the TGI (NCI-H226 lung) was greater than 100 µM and the TGI (NCI-H23 lung) was greater than 100 µM. For the same compound, the TGI (NCI-H460 lung) was greater than 100 µM, the TGI (NCI-H522 lung) was greater than 100 µM and the TGI (NCI/ADR-RES ovarian) was greater than 100 µM. It also gave a TGI (OVCAR-4 ovarian) greater than 100 µM, a TGI (OVCAR-5 ovarian) greater than 100 µM and a TGI (OVCAR-8 ovarian) greater than 100 µM. The TGI (PC-3 prostate) was greater than 100 µM, the TGI (RPMI-8226 leukemia) was greater than 100 µM and the TGI (RXF 393 renal) was greater than 100 µM. For the same compound, the TGI (SF-268 CNS) was greater than 100 µM, the TGI (SF-295 CNS) was greater than 100 µM and the TGI (SK-MEL-2 melanoma) was greater than 100 µM. For the same compound, the TGI (SK-MEL-5 melanoma) was greater than 100 µM, the TGI (SK-OV-3 ovarian) was greater than 100 µM and the TGI (SN12C renal) was greater than 100 µM. For the same compound, the TGI (SNB-19 CNS) was greater than 100 µM, the TGI (SNB-75 CNS) was greater than 100 µM and the TGI (SW-620 colon) was greater than 100 µM. It also gave a TGI (T-47D breast) greater than 100 µM, a TGI (TK-10 renal) greater than 100 µM and a TGI (U251 CNS) greater than 100 µM. It also gave a TGI (UACC-257 melanoma) greater than 100 µM, a TGI (UACC-62 melanoma) greater than 100 µM and a TGI (UO-31 renal) greater than 100 µM.
In the case of `COc1ccc([C@H]2CC(=O)C[C@H](c3ccc(OC)cc3)C23C(=O)c2ccccc2C3=O)cc1`, the TGI (786-0 renal) is reported as greater than 100 µM, the TGI (A498 renal) is reported as greater than 100 µM and the TGI (A549 NSCLC) is reported as greater than 100 µM. For the same compound, the TGI (ACHN renal) was greater than 100 µM, the TGI (BT-549 breast) was greater than 100 µM and the TGI (CAKI-1 renal) was greater than 100 µM. For the same compound, the TGI (CCRF-CEM leukemia) was greater than 100 µM, the TGI (COLO 205 colon) was 8.32 µM and the TGI (DU-145 prostate) was greater than 100 µM. It also gave a TGI (EKVX NSCLC) greater than 100 µM, a TGI (HCC-2998 colon) of 32.6 µM and a TGI (HCT-116 colon) greater than 100 µM. The TGI (HCT-15 colon) was greater than 100 µM, the TGI (HOP-62 NSCLC) was greater than 100 µM and the TGI (HOP-92 NSCLC) was greater than 100 µM. It also gave a TGI (HS 578T breast) of 87.8 µM, a TGI (HT29 colon) greater than 100 µM and a TGI (IGROV1 ovarian) greater than 100 µM. It also gave a TGI (K-562 leukemia) greater than 100 µM, a TGI (KM12 colon) greater than 100 µM and a TGI (LOX IMVI melanoma) greater than 100 µM. For the same compound, the TGI (M14 melanoma) was greater than 100 µM, the TGI (MALME-3M melanoma) was greater than 100 µM and the TGI (MCF7 breast) was greater than 100 µM. The TGI (MDA-MB-231 breast) was greater than 100 µM, the TGI (MDA-MB-435) was 5.95 µM and the TGI (MDA-N) was 5.35 µM. It also gave a TGI (MOLT-4 leukemia) greater than 100 µM, a TGI (NCI-H226 lung) greater than 100 µM and a TGI (NCI-H23 lung) greater than 100 µM. For the same compound, the TGI (NCI-H460 lung) was greater than 100 µM, the TGI (NCI-H522 lung) was 18.6 µM and the TGI (NCI/ADR-RES ovarian) was 7.69 µM. It also gave a TGI (OVCAR-4 ovarian) greater than 100 µM, a TGI (OVCAR-5 ovarian) greater than 100 µM and a TGI (OVCAR-8 ovarian) greater than 100 µM. It also gave a TGI (PC-3 prostate) greater than 100 µM, a TGI (RPMI-8226 leukemia) greater than 100 µM and a TGI (RXF 393 renal) of 16 µM. For the same compound, the TGI (SF-268 CNS) was greater than 100 µM, the TGI (SF-295 CNS) was greater than 100 µM and the TGI (SF-539 CNS) was 53.3 µM. For the same compound, the TGI (SK-MEL-2 melanoma) was 17.5 µM, the TGI (SK-MEL-28 melanoma) was greater than 100 µM and the TGI (SK-MEL-5 melanoma) was 17.4 µM. The TGI (SK-OV-3 ovarian) was greater than 100 µM, the TGI (SN12C renal) was greater than 100 µM and the TGI (SNB-19 CNS) was greater than 100 µM. For the same compound, the TGI (SNB-75 CNS) was 8.63 µM, the TGI (SR leukemia) was 42.2 µM and the TGI (SW-620 colon) was greater than 100 µM. The TGI (T-47D breast) was greater than 100 µM, the TGI (TK-10 renal) was greater than 100 µM and the TGI (U251 CNS) was greater than 100 µM. It also gave a TGI (UACC-257 melanoma) of 7.74 µM, a TGI (UACC-62 melanoma) greater than 100 µM and a TGI (UO-31 renal) greater than 100 µM.
